Data on 12 molecules can be found in patent US8093218B2, “Peptide derived from vascular endothelial growth factor receptor-1 binding integrin α5β1 having proangiogenic activity” (Provincia Italiana della Congregazione dei Figli …, priority 2006, dated 2012).

Assay [1] relates to HUVEC adhesion to peptide 12. The experiment in a line: adhesion of HUVEC to peptide 12 in presence of chelating agents or anti-integrin antibodies. In kind it is cell-based, human. The following applies: HUVEC on plates covered with peptide 12. The protocol:
The peptide 12 or the BSA, as non-specific adhesion control, were linked on plates and the HUVEC added in the presence of chelating agents (EDTA or EGTA).
The HUVEC were pre-incubated with an antibody against the integrin α5β1 or versus the integrinic subunit α6 and left to adhere on plates covered with peptide 12 or BSA.

In assay [2] the test system is HUVEC. The experiment in a line: formation of tubules of EC in Type I collagen gel. The class given is cell-based, human. The procedure:
It was tested the ability of the peptide 12 to induce the formation of tubules of EC. HUVEC cells were plated on 24 wells plates previously covered with a mixture of gel Type I collagen, in the absence or presence of 500 μg/ml peptide 12 or peptide 1. A second layer of gel Type I collagen was placed on the adherent cells. As shown, in the absence or presence of peptides, were added, in the culture medium, different concentrations of VEGF (40 or 100 nM), or 20 μg/ml of protein VEGFR-1/Fc.

Assay [3] deals with HUVEC migration induced from VEGFR-1/Fc. The assay is described as follows: EC migration in Boyden chambers induced by VEGFR-1/Fc. In kind it is cell-based, human. The following applies: HUVEC pre-incubated with peptide. The protocol: In order to investigate the ability to peptide 12 to influence the migration of the EC induced from VEGFR-1/Fc, a process mediated from the integrin α5β1, the HUVEC were pre-incubated with peptide 12 and peptide 1 and placed in Boyden chambers in order to analyze the migration induced from VEGFR-1/Fc or fibronectin (FN). Data represent the average of 14 microscopic fields and are referred to as percentage of inhibition compared to the migration observed in the absence of peptides.

Assay [4] addresses T1, integrin α5β1 (Homo sapiens, UniProt P05556+P08648). The assay is described as follows: solid-phase binding of integrin α5β1 to alanine-substituted peptide 12 mutants. The following applies: purified integrin α5β1 on plates covered with mutant peptides. The procedure: Was also assessed the direct binding to integrin α5β1 with mutant peptides by a binding test on solid phase. The integrin α5β1 purified was added to plates covered with the various peptides and the amount bound was measured using an antibody anti-integrin α5β1 with a calorimetric method. The data were expressed as percentage of protein linked observed on plates covered with the original peptide 12.

The test system of assay [5] is HUVEC. The assay is described as follows: cellular adhesion of HUVEC to alanine-substituted peptide 12 mutants. The class given is cell-based, human. The conditions noted are these: mutant peptides covalently linked to plates. The protocol:
These peptides were tested for their ability to directly support the cellular adhesion. The ten peptides were covalently linked to plates, and were also tested, as negative controls, a peptide “scrambled” in which the amino acid sequence of the peptide 12 was modified (see Table 1.) (sP12) and BSA. The HUVEC were plated and allow to adhere. The results were expressed as percentage of the cellular adhesion observed on plates covered with the peptide 12.

The subject of assay [6] is HUVEC adhesion to VEGFR-1/Fc. The assay is described as follows: inhibition by peptides of EC adhesion to VEGFR-1/Fc. The class given is cell-based, human. The following applies: peptide added to HUVEC suspension before plating. The procedure: (§1) In order to test the ability of the twelve chosen peptides to inhibit the adhesion of the EC to VEGFR-1 mediated from the integrin α5β1, every peptide was added to one suspension of HUVEC before plated on dishes covered with VEGFR-1/Fc or fibronectin (FN). The data were indicated as percentage of adhesion, calculated to the number of cells adhered on the substrate itself in absence of peptides.

Assay [7] has as its system HUVEC adhesion to fibronectin (FN). The assay is described as follows: inhibition by peptides of EC adhesion to fibronectin. In kind it is cell-based, human. The conditions noted are these: peptide added to HUVEC suspension before plating. The procedure:
as §1

The next assay deals with T2, VEGF (Homo sapiens, UniProt P15692).
T2 sequence (P15692 207-320 limits assumed): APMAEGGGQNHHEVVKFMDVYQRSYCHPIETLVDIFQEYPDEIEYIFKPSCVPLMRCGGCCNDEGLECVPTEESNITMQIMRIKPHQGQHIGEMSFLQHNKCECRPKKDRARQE
The following applies: previously published; cited from earlier work.

A further assay relates to angiogenesis. The conditions noted are these: previously published; cited from earlier work.
Assay [8] has as its target T1, integrin α5β1. The experiment in a line: integrin α5β1 aggregation around peptide-coated magnetic beads (immunostaining). In kind it is cell-based. More on the design: endogenous in cells; host or cells: HUVEC. The conditions noted are these: magnetic beads coated with peptide, immunostaining for integrin α5β1. The protocol: The integrins not linked are widely distributed on cellular membrane, but after the ligand binding and the activation merged in distinct structures called focal contacts and ECM contact.
(§2) It was examined whether the peptide 12 was able to induce aggregation of integrin α5β1 after the binding. EC adherent cells were incubated with magnetic beads coated with peptide 12, or peptide RGD or peptide RGE respectively as positive and negative controls, and immunostained with an antibody against integrin α5β1.

Assay [9] addresses T1, integrin α5β1. The assay is described as follows: solid-phase binding of purified integrin α5β1 to plates covered with dII or VEGFR-1/Fc. The conditions noted are these: anti-integrin α5β1 antibody, colorimetric, absorbance at 405 nm. The protocol:
The direct bind of the integrin α5β1 to the domain had been determined also with binding test on solid phase. The purified integrin α5β1 was added to plates covered with dII or with VEGFR-1/Fc like positive control and the integrin bound was measured using an antibody anti-integrin α5β1 and a colorimetric test.

Assay [10] concerns HUVEC. The experiment in a line: adhesion of HUVEC on plates covered with recombinant protein. In kind it is cell-based, human. The following applies: plates covered with the protein; absorbance at 540 nm. The procedure:
The endothelial cells derived from human umbilical vein (HUVEC) were used to examine ability of the domain II to support the adhesion of EC in plates covered with the recombinant protein.
The HUVEC were incubated on plates covered with VEGFR-1 FC, with the domain II (dII) recombinant, with fibronectin (FN) or bovine serum albumin (BSA). The protein VEGFR-1/Fc, and the fibronectin were used as positive controls and BSA as negative control.
The cells assayed were coloured and the absorbance was measured.

Assay [11] addresses T3, integrin α5β1 on endothelial cells derived from human umbilical vein (HUVEC) (human, UniProt P08648 42-1049; P05556 21-798).
T3 construct: whole, on cells; Endogenous integrin on HUVEC in the adhesion, migration and bead tests; also called integrin α5β1 of the EC
The assay is described as follows: magnetic beads coated with peptide on adherent HUVEC, immunostaining for integrin α5β1. The procedure:
as §2

Entries after “also recorded” stand apart in the source; their conditions may differ.

T1 sequence (P08648 42-894 limits assumed): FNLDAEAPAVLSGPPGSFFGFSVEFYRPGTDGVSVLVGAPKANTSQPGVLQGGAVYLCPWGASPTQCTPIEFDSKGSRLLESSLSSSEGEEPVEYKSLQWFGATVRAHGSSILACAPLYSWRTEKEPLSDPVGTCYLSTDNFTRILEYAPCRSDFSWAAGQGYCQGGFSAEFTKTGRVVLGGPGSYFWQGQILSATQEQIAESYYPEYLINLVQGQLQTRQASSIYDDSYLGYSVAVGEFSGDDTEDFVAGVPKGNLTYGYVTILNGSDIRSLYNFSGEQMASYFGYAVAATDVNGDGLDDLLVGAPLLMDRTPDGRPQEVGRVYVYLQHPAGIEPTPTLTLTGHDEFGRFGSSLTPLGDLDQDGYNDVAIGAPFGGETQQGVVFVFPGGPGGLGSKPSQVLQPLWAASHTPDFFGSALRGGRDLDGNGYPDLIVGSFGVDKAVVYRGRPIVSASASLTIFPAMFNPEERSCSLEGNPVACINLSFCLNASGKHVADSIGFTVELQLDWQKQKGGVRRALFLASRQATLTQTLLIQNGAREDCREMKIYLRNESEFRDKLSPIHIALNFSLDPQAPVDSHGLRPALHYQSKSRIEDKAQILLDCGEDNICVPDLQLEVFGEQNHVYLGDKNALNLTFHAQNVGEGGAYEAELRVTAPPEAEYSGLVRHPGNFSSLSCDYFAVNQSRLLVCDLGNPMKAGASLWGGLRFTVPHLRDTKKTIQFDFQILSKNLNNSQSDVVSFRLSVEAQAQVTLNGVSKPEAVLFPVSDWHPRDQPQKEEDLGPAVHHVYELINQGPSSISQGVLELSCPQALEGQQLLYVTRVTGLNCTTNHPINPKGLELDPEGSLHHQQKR
T1 sequence (P08648 895-1049 partner limits assumed): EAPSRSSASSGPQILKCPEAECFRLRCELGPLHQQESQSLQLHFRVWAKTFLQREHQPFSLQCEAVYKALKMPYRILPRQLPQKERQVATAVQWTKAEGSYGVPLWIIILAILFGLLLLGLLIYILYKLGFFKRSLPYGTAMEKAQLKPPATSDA
T1 sequence (P05556 21-798): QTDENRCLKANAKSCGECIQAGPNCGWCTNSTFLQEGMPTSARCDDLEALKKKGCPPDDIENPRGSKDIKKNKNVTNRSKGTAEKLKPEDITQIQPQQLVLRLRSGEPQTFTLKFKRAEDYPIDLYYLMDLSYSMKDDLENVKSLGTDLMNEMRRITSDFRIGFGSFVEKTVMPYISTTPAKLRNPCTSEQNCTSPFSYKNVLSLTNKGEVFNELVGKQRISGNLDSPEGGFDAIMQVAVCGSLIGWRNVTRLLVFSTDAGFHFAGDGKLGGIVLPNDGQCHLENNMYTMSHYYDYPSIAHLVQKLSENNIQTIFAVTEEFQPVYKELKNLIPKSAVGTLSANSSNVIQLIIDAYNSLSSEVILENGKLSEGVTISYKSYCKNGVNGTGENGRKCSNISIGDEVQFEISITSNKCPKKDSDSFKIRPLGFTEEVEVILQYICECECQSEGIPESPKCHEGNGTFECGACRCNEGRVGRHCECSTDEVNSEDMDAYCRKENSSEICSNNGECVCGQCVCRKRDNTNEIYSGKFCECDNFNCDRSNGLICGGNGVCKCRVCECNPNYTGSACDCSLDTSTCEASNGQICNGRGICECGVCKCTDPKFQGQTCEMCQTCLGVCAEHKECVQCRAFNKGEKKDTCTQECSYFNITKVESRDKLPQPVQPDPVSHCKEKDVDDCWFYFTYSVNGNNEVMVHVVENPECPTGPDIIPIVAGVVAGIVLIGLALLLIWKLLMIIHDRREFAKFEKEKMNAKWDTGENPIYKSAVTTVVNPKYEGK
T3 sequence (P08648 42-1049, chain 1 of 2): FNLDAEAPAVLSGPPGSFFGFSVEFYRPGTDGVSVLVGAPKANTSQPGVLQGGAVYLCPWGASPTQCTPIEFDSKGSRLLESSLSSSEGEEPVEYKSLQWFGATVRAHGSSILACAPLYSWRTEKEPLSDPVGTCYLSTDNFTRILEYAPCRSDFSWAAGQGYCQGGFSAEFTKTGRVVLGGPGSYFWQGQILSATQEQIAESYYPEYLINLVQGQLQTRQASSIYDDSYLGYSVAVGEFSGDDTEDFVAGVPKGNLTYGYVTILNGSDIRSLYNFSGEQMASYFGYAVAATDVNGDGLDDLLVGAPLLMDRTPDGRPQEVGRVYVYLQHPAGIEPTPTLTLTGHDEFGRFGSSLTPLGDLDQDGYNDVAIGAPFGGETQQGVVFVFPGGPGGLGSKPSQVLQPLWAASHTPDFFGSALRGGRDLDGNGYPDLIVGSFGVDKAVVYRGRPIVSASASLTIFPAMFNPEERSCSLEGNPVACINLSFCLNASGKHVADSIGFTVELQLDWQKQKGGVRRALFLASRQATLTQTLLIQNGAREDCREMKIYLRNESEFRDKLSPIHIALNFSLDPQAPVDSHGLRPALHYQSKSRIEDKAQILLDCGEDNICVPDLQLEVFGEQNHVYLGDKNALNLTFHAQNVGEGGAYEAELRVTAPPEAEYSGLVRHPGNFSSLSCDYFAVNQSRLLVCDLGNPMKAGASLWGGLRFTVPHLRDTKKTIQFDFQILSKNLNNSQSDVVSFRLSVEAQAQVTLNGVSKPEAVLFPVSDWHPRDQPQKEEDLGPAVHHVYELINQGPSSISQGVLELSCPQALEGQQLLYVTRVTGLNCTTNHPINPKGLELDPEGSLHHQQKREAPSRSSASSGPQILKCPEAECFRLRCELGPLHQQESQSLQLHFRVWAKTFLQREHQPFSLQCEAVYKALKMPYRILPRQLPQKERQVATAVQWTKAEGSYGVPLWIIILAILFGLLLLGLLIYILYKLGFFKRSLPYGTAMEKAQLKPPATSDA
T3 sequence (P05556 21-798, chain 2 of 2): as the sequence (P05556 21-798) above

In the case of `O=C(O)CN(CCN(CC(=O)O)CC(=O)O)CC(=O)O` [EDTA, reference compound], the “effect of agent on adhesion of EC to peptide 12” value in assay [1] is “completely abolished adhesion of EC”.

Consider `O=C(O)CN(CCOCCOCCN(CC(=O)O)CC(=O)O)CC(=O)O` [EGTA, reference compound], for which the “effect of agent on adhesion of EC to peptide 12” value in [1] is listed as “completely abolished adhesion of EC”.

Turning to “GRPFVEMYSE (listed as Homo sapiens) [peptide 1, used as negative control]”, in the assay on HUVEC [2] (500 μg/ml peptide with VEGF 40 nM), the “effect on VEGF-induced tubule formation” value is listed as “neither increased the effect of VEGF”. In addition, in the assay on HUVEC [2] (500 μg/ml peptide, collagen I matrix), the “induction of formation of tubules of EC” value is given as “did not induce the formation of tubules”. Also, the “inhibition of EC migration induced by VEGFR-1/Fc” value in assay [3] is given as “completely ineffective”.

“His 223 peptide mutant in Ala: peptide 12 with His 223 mutated to alanine (NYLTARQ)”: in the assay with integrin α5β1 [4], the “role of replaced residue in integrin α5β1 binding to mutant peptide relative to peptide 12” value is reported as “important in supporting the protein/protein interaction”. Also, the entries for the “cellular adhesion to mutant peptide relative to peptide 12” value in the assay on HUVEC [5] and in the assay with HUVEC [5] (listed as His 223) were “comparable” and “significantly reduce”, respectively.

With “KFPLDTLIPDG (listed as Homo sapiens) [peptide 7]”, in assay [6], the “inhibition of adhesion of EC to VEGFR-1/Fc” value (from here on “inhibition … to VEGFR-1/Fc”) is “effectively blocked; also recorded: inhibit cellular adhesion to sVEGFR-1”. For the same molecule, the “inhibition of adhesion of EC to fibronectin” value in assay [7] is “partially inhibit”.

Turning to “NITVTLKKFPL (listed as Homo sapiens) [peptide 5]”, in the assay with VEGF, the “binding to VEGF / inhibition of VEGF binding to its receptors” value was “without binding to VEGF or inhibiting VEGF binding to its receptors”. Besides, in the assay with angiogenesis, the angiogenesis inhibitor activity entry is given as “act as an angiogenesis inhibitor”. Further, the “inhibition … to VEGFR-1/Fc” value in assay [6] is “effectively blocked; also recorded: inhibit cellular adhesion to sVEGFR-1”.

For RGE [peptide RGE, reference compound], the “integrin α5β1 aggregation / bead attachment on EC” value on integrin α5β1 [8] is “No beads covered with the peptide RGE was attached with HUVEC”.

Regarding “TEGRELVIPARVT (listed as Homo sapiens) [peptide 4]”, the “inhibition … to VEGFR-1/Fc” value in assay [6] was “effectively blocked; also recorded: inhibit cellular adhesion to sVEGFR-1”. In assay [7], the “inhibition of adhesion of EC to fibronectin” value is “partially inhibit”.

Consider “Y220A: peptide 12 with Tyr 220 replaced with alanine (NALTHRQ)”, for which the “role of replaced residue in integrin α5β1 binding to mutant peptide relative to peptide 12” value in the assay with integrin α5β1 [4] is listed as “residue more critical to the integrin binding”. In addition, the “cellular adhesion to mutant peptide relative to peptide 12” value in the assay on HUVEC [5] is on record as “significantly reduce”; in the assay with HUVEC [5] (listed as Tyr 220 with ALA) it was “completely abolished cellular adhesion”.

B1: VEGFR-1/Fc: sVEGFR-1 fusion protein with the Fc domain of human immunoglobulins (protein)
chain: SKLKDPELSLKGTQHIMQAGQTLHLQCRGEAAHKWSLPEMVSKESERLSITKSACGRNGKQFCSTLTLNTAQANHTGFYSCKYLAVPTSKKKETESAIYIFISDTGRPFVEMYSEIPEIIHMTEGRELVIPCRVTSPNITVTLKKFPLDTLIPDGKRIIWDSRKGFIISNATYKEIGLLTCEATVNGHLYKTNYLTHRQTNTIIDVQISTPRPVKLLRGHTLVLNCTATTPLNTRVQMTWSYPDEKNKRASVRRRIDQSNSHANIFYSVLTIDKMQNKDKGLYTCRVRSGPSFKSVNTSVHIYDKAFITVKHRKQQVLETVAGKRSYRLSMKVKAFPSPEVVWLKDGLPATEKSARYLTRGYSLIIKDVTEEDAGNYTILLSIKQSNVFKNLTATLIVNVKPQIYEKAVSSFPDPALYPLGSRQILTCTAYGIPQPTIKWFWHPCNHNHSEARCDFCSNNEESFILDADSNMGNRIESITQRMAIIEGKNKMASTLVVADSRISGIYICIASNKVGTVGRNISFYITDVPNGFHVNLEKMPTEGEDLKLSCTVNKFLYRDVTWILLRTVNNRTMHYSISKQKMAITKEHSITLNLTIMNVSLQDSGTYACRARNVYTGEEILQKKEITIRGEHCNKKAVFSRISKFKSTRNDCTTQSNVKH
modifications: left off: a dimerising Fc or GST
notes: sVEGFR-1 fusion protein with the Fc domain of human immunoglobulins
As for B1, the “amount of integrin α5β1 bound to coated protein” value in the assay with integrin α5β1 [9] is reported as “a similar amount of integrin interacted”. Further, in the assay with HUVEC [2] (20 μg/ml VEGFR-1/Fc in culture medium), the “effect of VEGFR-1/Fc on constitution of tubules” value is “strong inhibition of the constitution of tubules”.

B2: dII recombinant: recombinant protein corresponding to VEGFR-1 domain II (residues 129-229), produced in SF9 cells (protein)
chain: SDTGRPFVEMYSEIPEIIHMTEGRELVIPCRVTSPNITVTLKKFPLDTLIPDGKRIIWDSRKGFIISNATYKEIGLLTCEATVNGHLYKTNYLTHRQTNTI
modifications: left off: small tags and cut ends
notes: recombinant protein corresponding to VEGFR-1 domain II (residues 129-229), produced in SF9 cells
As to B2, the “amount of integrin α5β1 bound to coated protein” value with integrin α5β1 [9] is listed as “a similar amount of integrin interacted”. Besides, in the assay with HUVEC [10], the “adhesion of HUVEC to coated protein” value is “supported the adhesion of the HUVEC”.

B3: peptide 12 (NYLTHRQ, VEGFR-1 residues 219-225) (peptide)
peptide: NYLTHRQ
notes: Covalently linked to plates or coated on magnetic beads, or added in solution to HUVEC; also called P12; original peptide 12
On to B3, for which, in [11], the binding result is “binds”.
